Patent US11098095B1, “Methods of inhibiting MMP-9” (DASMAN DIABETES INSTITUTE, priority 2020, dated 2021)

Legend:
Format in all cases: cell-based
[1] = test system: MMP-9 protein secretion by monocytes (THP-1 cells) and macrophages; assay: MMP-9 secreted protein in culture supernatants by sandwich ELISA; conditions: for cross-talk effect of IL-6 and TNF-α stimulation on the secretion of MMP-9 by monocytes: then IL-6/TNF-α for 24 hr; for crosstalk effect of IL-6 on TNF-α's enhancement of MMP-9 expression and secretion: summary statement, concentration not given; for MMP-9 protein secretion levels: monocytes and macrophages, stimulated 24 hr, FIGS. 2A-2B
Procedure: Monocytes (THP-1 cells and macrophages were cultured in 12-well plates (Costar, Corning Incorporated, Corning, N.Y., USA) at a cell density of 1/10^6 cells/well. Cells were pre-incubated with gp130 inhibitor (SC-144, 1.5 μM) or JAK2 inhibitor (AG-490, 30 μM) for 1 hour and then stimulated with IL-6 or TNF-α or IL-6/TNF-α for 24 hr at 37° C. (with humidity) in 5% CO2. Control cells were incubated with culture media only. Culture media and cells were harvested and MMP9 mRNA and protein expression levels were assessed by real-time PCR (RT-PCR) and ELISA. MMP-9 secreted protein in the supernatants of monocytes and macrophages stimulated with IL-6, TNF-α, or IL-6 and TNF-α was quantified using sandwich ELISA following the manufacturers instructions (SMP900, R&D systems, Minneapolis, USA). As illustrated in FIGS. 2A-2B. […] As illustrated in FIGS. 3A-3B, this robust cross-talk effect of IL-6 and TNF-α stimulation on the secretion of MMP-9 by monocytes may be extinguished by administration of either a JAK2 inhibitor AG-490, See FIG. 3A) or a gp130 inhibitor (SC-144, See FIG. 3B).

[2] = test system: MMP-9 proteolytic activity in conditioned media of THP-1 cells; assay: MMP9 proteolytic activity measured using gelatin zymography; conditions: monocytes (THP-1), 24 hours incubation
Procedure: THP-1 cells were incubated with TNF-α and IL-6. After incubation for 24 hours, conditioned media were collected and mixed with Zymogram sample buffer (BioRad; 62.5 mM Tris-HCl, pH.6.8, 25% glycerol, 4% SDS and 0.01% bromophenol blue) and then loaded on to a 10% polyacrylamide gel with gelatin (10% Ready Gel Zymogram Gel, BioRad) for electrophoresis. The gel was incubated with renaturing buffer BioRad (2.5% Triton X-100) for 1 hour at room temperature and Incubated with zonogram developing buffer.

[3] = test system: MMP-9 mRNA expression in monocytes (THP-1 cells) and macrophages; assay: MMP-9 mRNA expression by real-time PCR (RT-PCR); conditions: stimulated 24 hr, FIGS. 1A and 1B
Procedure: Monocytes (THP-1 cells and macrophages were cultured in 12-well plates (Costar, Corning Incorporated, Corning, N.Y., USA) at a cell density of 1/10^6 cells/well. Cells were pre-incubated with gp130 inhibitor (SC-144, 1.5 μM) or JAK2 inhibitor (AG-490, 30 μM) for 1 hour and then stimulated with IL-6 or TNF-α or IL-6/TNF-α for 24 hr at 37° C. (with humidity) in 5% CO2. Control cells were incubated with culture media only. Culture media and cells were harvested and MMP9 mRNA and protein expression levels were assessed by real-time PCR (RT-PCR) and ELISA.
Total RNA was extracted using RNeasy Mini Kit (Qiagen, Valencia, Calif.; USA). […] For RT-PCR, cDNA template (50 ng) was amplified using inventoried TaqMan Gene Expression Assay products (MMP-9; Hs00234579_m1; GAPDH; Bs0392909_g1; containing two gene-specific printers and one TaqMan MGB probe (6-FAM dye-labeled) with a TaqMan Gene Expression Master Mix (Applied Biosystems, Foster City, Calif., USA) and a 7500 Fast Real-Time PCR System (Applied Biosystems, Foster City, Calif., USA). The mRNA levels were normalized against GAPDH mRNA and MMP-9 mRNA expression relative to control was calculated using the 2^−ΔΔCt-method. Relative mRNA expression is shown as told expression over average of control gene expression. […] The results were analyzed statistically and P<0.05 was considered significant.

Row | Compound | cross-talk effect of IL-6 and TNF-α stimulation on the secretion of MMP-9 by monocytes ([1]; AG-490 30 μM pre-incubated 1 hour, FIG. 3A) | crosstalk effect of IL-6 on TNF-α's enhancement of MMP-9 expression and secretion [1] | cross-talk effect of IL-6 and TNF-α stimulation on the secretion of MMP-9 by monocytes ([1]; SC-144 1.5 μM pre-incubated 1 hour, FIG. 3B) | MMP-9 protein secretion levels [1] | MMP-9 proteolytic activity [2] | MMP-9 mRNA expression relative to control [3]
1 | N#C/C(=C\c1ccc(O)c(O)c1)C(=O)NCc1ccccc1 [AG490] | extinguished | suppress | – | – | – | –
2 | O=C(NNc1nc2cc(F)ccc2n2cccc12)c1cnccn1 [SC-144] | – | suppress | extinguished | – | – | –
3 | interleukin-6 [IL-6] | – | – | – | minimally effected | minimal | –
4 | tumor necrosis factor alpha [TNF-α] | – | – | – | increased | lesser | increase
